The values that follow come from patent US7524885B2, “Compounds that stimulate glucose utilization and methods of use” (The Governors of the University of Alberta, priority 2002, dated 2009).

The conditions of data set [1]: cited from earlier work.
The test system of data set [2] is isolated working rat heart. The experiment in a line: Glucose oxidation in isolated perfused working rat heart ([U-14C]glucose, 14CO2 production). As to conditions: for activation at 100 µM: screening concentration 100 μM, isolated working rat heart, read-out: Glucose Oxidation (% above control); for stimulation of glucose oxidation in the heart (in words): intact heart. On the procedure:
Rat hearts were cannulated for isolated working heart 60 minute aerobic perfusions as described in J Pharmacol Exp Ther. 1993; 264:135-144, the entire disclosure of which is incorporated herein by reference.
Male Sprague-Dawley rats (0.3-0.35 kg) were anesthetized with pentobarbital sodium (60 mg/kg IP) and hearts were quickly excised, the aorta was cannulated and a retrograde perfusion at 37° C. was initiated at a hydrostatic pressure of 60 mm Hg. Hearts were trimmed of excess tissue, and the pulmonary artery and the opening to the left atrium were then cannulated. After 15 min of Langendorff perfusion, hearts were switched to the working mode by clamping the aortic inflow line from the Langendorff reservoir and opening the left atrial inflow line. The perfusate was delivered from an oxygenator into the left atrium at a constant preload pressure of 11 mm Hg. Perfusate was ejected from spontaneously beating hearts into a compliance chamber (containing 1 ml of air) and into the aortic outflow line. The afterload was set at a hydrostatic pressure of 80 mm Hg. All working hearts were perfused with Krebs'-Henseleit solution containing calcium 2.5 mmol/L, glucose 5.5 mmol/L, 3% bovine serum albumin (fatty acid free, initial fractionation by heat shock, Sigma), and with 1.2 mmol/L palmitate. Palmitate was bound to the albumin as described in J Bio Chem. 1992; 267:3825-3831, the entire disclosure of which is incorporated herein by reference.
The perfusate was recirculated, and pH was adjusted to 7.4 by bubbling with a mixture containing 95% O2 and 5% CO2.
Spontaneously beating hearts were used in all perfusions. Heart rate and aortic pressure were measured with a Biopac Systems Inc. blood pressure transducer connected to the aortic outflow line. Cardiac output and aortic flow were measured with Transonic T206 ultrasonic flow probes in the preload and afterload lines, respectively. Coronary flow was calculated as the difference between cardiac output and aortic flow. Cardiac work was calculated as the product of systolic pressure and cardiac output.
Measurement of Glucose Oxidation: Glucose oxidation was measured simultaneously by perfusing hearts with [U-^14C] glucose according to the procedures discussed in Saddik M, et al., J Bio Chem. 1992; 267:3825-3831. The entire disclosure of this reference is incorporated herein by reference. The total myocardial ^14CO2 production was determined at 10-min intervals from the 60-min aerobic period. Glucose oxidation rates were determined by quantitative measurement of ^14CO2 production as described in Barbour RL, et al., Biochemistry. 1984; […]. The entire disclosure of this reference is incorporated herein by reference. ^14CO2 production for the control group were compared with the ^14CO2 production for the group treated with cyclopropanecarboxylic acid, 2-[2-(2-methoxy-ethoxy)-ethoxy]-ethyl ester. Results are shown on FIG. 1 and TABLE 2A.
The procedure of Example A for was followed except that cyclobutanecarboxylic acid, 2-[2-(2-methoxy-ethoxy)-ethoxy]-ethyl ester in 1 μM, 10 μM, 100 μM and 1000 μM amounts was added to the buffer in place of the cyclopropanecarboxylic acid, 2-[2-(2-methoxy-ethoxy)-ethoxy]-ethyl ester. The results are illustrated in FIG. 2 and TABLE 2A.
The procedure of Example A was followed except that cyclopropanecarboxylic acid, 2-isopropoxy-ethyl ester in 1 μM, 10 μM, 100 μM and 1000 μM amounts was added to the buffer in place of the cyclopropanecarboxylic acid, 2-[2-(2-methoxy-ethoxy)-ethoxy]-ethyl ester. The results are illustrated in FIG. 3 and TABLE 2A.
The procedure of Example A was followed except that various cyclobutanecarboxylic acid derivatives, cyclopropanecarboxylic acid derivatives and cyclobutanecarboxylic acid in the amounts of 100 μM or 1000 μM was added to the buffer in place of the cyclopropanecarboxylic acid, 2-[2-(2-methoxy-ethoxy)-ethoxy]-ethyl ester.

Where two headings read alike, the source gives them in different places.

As to `O=C(O)C(Cl)Cl` [DCA, dichloroacetate], in data set [1], the “biological half-life (in words)” value is reported as “short biological half-life”.

On to `O=C(OC[C@H]1O[C@H](OC(=O)C2CC2)[C@H](OC(=O)C2CC2)[C@@H](OC(=O)C2CC2)[C@@H]1OC(=O)C1CC1)C1CC1` [Compound 35MM088, 1,2,3,4,6-penta-O-(cyclopropanecarbonyl)-D-glucopyranose], for which the activation at 100 µM in data set [2] (Table 2B) was 205%.

For `CC(C)OCCOC(=O)C1CCC1` [Compound 18MM071, Cyclobutanecarboxylic acid 2-isopropoxy-ethyl ester], the activation at 100 µM in data set [2] (Table 2A) came to 97%.

`CCCCCCOCCOCCOC(=O)C1CC1` [Compound 11MM064, Cyclopropanecarboxylic acid 2-(2-hexyloxy-ethoxy)-ethyl ester]: in data set [2] (Table 2A), the activation at 100 µM turned out to be 83%.

Regarding `O=C(O)C1CCC1` [MM013, Cyclobutanecarboxylic acid], in data set [2], the “stimulation of glucose oxidation in the heart (in words)” value is listed as “stimulate glucose oxidation”.

As to `COCCOCCOCCOC(=O)C1CCC1` [Compound 3MM056, Cyclobutanecarboxylic Acid, 2-[2-(2-methoxy-ethoxy)-ethoxy]-ethyl ester], the activation at 100 µM in data set [2] (Table 2A) was determined as 54%.

Regarding `O=C(OCCOCCOC(=O)C1CCC1)C1CCC1` [Compound 20MM073, Cyclobutanecarboxylic acid, 2-(2-cyclobutanecarbonyloxy-ethoxy)-ethyl ester], in data set [2] (Table 2A), the activation at 100 µM worked out at 243%.

With `CN(C)CCOCCOC(=O)C1CC1` [Compound 9MM062, Cyclopropanecarboxylic acid 2-(2-dimethylamino-ethoxy)-ethyl ester], the activation at 100 µM in data set [2] (Table 2A) stood at 77%.

With `O=C(O)C1CC1` [MM001, Cyclopropanecarboxylic acid], the “stimulation of glucose oxidation in the heart (in words)” value in data set [2] is on record as “stimulator of glucose oxidation”.
